Experiment [1] in a line: Antioxidant activity assessed as inhibition of AAPH-induced peroxyl radical generation measured as trolox equivalent at 1 to 10 uM preincubated for 15 mins followed by AAPH addition measured every minute for 90 mins by ORAC-FL assay. Type of experiment: functional.
Experiment [2] has as its target T1, Acetylcholinesterase (Electrophorus electricus, UniProt O42275). As to the kind of experiment: Inhibition of electric eel AChE using acetylthiocholine chloride as substrate measured after 15 mins by Ellman's method. Type of experiment: ADME. A general note: Ellman's reagent forms a yellow product with free thiols.
For experiment [3], the target named is T2, Acetylcholinesterase (Rattus norvegicus, UniProt P37136).
T2 sequence (P37136 whole entry): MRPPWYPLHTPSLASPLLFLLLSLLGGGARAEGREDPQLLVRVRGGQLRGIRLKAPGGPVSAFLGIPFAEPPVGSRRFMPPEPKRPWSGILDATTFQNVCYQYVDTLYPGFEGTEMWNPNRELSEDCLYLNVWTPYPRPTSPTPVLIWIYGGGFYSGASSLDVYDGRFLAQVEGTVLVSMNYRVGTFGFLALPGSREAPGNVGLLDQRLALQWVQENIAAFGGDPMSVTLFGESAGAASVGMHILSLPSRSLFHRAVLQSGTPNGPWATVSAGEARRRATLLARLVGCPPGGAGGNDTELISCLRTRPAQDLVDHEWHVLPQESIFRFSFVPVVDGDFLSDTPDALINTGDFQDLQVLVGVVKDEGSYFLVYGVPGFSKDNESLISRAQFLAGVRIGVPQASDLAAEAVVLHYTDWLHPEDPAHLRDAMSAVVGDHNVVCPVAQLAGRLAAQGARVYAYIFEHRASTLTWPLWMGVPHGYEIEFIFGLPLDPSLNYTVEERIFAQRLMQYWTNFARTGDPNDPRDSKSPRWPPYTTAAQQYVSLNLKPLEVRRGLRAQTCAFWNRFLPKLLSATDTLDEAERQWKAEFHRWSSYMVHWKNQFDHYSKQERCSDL
Kind of experiment: Inhibition of AChE in rat cortex homogenates using acetylthiocholine chloride as substrate measured after 15 mins by Ellman's method. Type of experiment: ADME.

Experiment [4] has as its target Cholinesterase (Equus caballus, UniProt P81908). Kind of experiment: Inhibition of equine serum BuChE using butyrylthiocholine chloride as substrate measured after 15 mins by Ellman's method.
Experiment [5] in a line: Inhibition of BuChE in rat serum using butyrylthiocholine chloride as substrate measured after 15 mins by Ellman's method. The note with it: 0.25 h.
The target in experiment [6] is Amyloid-beta precursor protein (Homo sapiens) (UniProt P05067). As to the kind of experiment: Inhibition of amyloid beta (1 to 42) (unknown origin) self-aggregation at 25 uM after 24 hrs by thioflavin-T fluorescence assay relative to control.
Amyloid-beta precursor protein (Homo sapiens), sequence (P05067 whole entry): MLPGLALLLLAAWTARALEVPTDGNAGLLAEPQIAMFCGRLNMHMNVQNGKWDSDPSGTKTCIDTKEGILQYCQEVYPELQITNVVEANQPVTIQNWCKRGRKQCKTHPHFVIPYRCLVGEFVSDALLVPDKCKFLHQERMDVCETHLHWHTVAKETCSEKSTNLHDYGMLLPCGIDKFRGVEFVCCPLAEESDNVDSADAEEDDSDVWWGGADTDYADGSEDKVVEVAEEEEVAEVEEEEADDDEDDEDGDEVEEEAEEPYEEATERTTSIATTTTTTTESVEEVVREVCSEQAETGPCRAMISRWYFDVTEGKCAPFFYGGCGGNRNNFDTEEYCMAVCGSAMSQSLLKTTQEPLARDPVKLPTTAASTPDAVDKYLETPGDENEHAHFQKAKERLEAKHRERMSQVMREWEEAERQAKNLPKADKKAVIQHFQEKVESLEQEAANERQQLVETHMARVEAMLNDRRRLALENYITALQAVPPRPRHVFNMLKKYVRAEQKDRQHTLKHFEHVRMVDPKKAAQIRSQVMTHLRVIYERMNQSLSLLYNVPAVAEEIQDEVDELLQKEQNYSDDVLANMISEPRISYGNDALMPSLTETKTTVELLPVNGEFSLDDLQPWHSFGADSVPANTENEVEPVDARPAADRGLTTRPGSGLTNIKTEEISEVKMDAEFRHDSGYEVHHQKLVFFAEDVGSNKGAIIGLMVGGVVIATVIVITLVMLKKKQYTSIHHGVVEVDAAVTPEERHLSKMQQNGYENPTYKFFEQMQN
The nature of experiment [7]: Selectivity index, ratio of IC50 for electric eel AChE to IC50 for equine serum BuChE.
The target in experiment [8] is T2, Acetylcholinesterase. Kind of experiment: Inhibition of AChE in rat cortex homogenates at 25 umol/l using acetylthiocholine chloride as substrate measured after 15 mins by Ellman's method. Particulars: 0.25 h.
Experiment [9] addresses T1, Acetylcholinesterase. As to the kind of experiment: Inhibition of electric eel AChE at 25 uM using acetylthiocholine chloride as substrate measured after 15 mins by Ellman's method relative to control. The note with it: 0.25 h.

Structures are written as SMILES.

T1 sequence (O42275 whole entry): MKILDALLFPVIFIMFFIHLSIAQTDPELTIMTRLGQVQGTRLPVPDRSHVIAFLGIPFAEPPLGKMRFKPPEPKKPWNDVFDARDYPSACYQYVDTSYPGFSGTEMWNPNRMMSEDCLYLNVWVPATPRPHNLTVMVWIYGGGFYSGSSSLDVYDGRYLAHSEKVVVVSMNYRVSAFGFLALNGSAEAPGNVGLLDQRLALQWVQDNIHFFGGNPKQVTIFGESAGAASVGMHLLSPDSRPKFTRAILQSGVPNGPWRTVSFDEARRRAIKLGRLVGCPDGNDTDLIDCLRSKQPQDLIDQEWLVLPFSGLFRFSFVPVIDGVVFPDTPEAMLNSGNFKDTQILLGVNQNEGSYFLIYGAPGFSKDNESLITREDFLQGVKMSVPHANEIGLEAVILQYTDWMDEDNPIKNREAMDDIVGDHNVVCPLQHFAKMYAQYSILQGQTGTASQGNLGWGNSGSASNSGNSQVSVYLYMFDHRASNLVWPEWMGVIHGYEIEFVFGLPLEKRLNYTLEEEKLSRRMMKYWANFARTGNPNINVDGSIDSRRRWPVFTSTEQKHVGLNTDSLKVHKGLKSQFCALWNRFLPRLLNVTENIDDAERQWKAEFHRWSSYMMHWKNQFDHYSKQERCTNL
Cholinesterase, sequence (P81908 whole entry): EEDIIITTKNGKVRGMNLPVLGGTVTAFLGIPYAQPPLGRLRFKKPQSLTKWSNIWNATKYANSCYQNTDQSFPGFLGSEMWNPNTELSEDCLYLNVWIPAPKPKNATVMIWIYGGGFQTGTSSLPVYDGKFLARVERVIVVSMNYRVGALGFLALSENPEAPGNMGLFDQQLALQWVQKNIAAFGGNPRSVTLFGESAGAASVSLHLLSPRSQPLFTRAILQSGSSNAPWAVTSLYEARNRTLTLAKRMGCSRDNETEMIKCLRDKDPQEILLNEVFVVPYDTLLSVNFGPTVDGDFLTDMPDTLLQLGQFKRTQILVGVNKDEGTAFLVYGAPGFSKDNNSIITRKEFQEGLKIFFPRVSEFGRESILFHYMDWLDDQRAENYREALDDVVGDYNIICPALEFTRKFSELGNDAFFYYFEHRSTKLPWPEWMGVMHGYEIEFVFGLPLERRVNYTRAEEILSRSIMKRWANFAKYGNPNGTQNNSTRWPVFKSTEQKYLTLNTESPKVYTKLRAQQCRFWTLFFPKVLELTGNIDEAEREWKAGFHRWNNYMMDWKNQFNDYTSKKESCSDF

As usually defined, the IC50 is the concentration at which inhibition is half-maximal. Lower therefore signals higher potency. As a reminder, the inhibition is the drop in the measured response relative to a control, in per cent. Read a high inhibition as strong suppression. `COc1cc(/C=C/C(=O)N2CCC(Cc3ccccc3)CC2)ccc1OCCCN1CCc2ccccc2C1`: the Activity in experiment [1] came out at 0.51 equiv. For the same molecule, the IC50 turned out to be 2.21 µM in [2], 1.89 µM in experiment [3], 0.12 µM in experiment [4] and 2.28 µM in experiment [5]. The inhibition in experiment [6] was found to be 55.6%. Further, the Ratio IC50 in [7] came to 18.4.

Take `COc1cc(/C=C/C(=O)N2CCC(Cc3ccccc3)CC2)ccc1OCCCCN1CCN(c2ncccn2)CC1`: the Activity in experiment [1] is 0.43 equiv. Besides, the IC50 is 12.4 µM in experiment [2], 44.3 µM in [3], 1.56 µM in experiment [4] and 56.2 µM in [5]. The molecule further had an inhibition in experiment [6] of 46%. Further, in experiment [7], the Ratio IC50 came to 7.9.

For `COc1cc(/C=C/C(=O)N2CCC(Cc3ccccc3)CC2)ccc1OCCCCCCN1CCN(Cc2ccccc2)CC1`, the Activity in [1] turned out to be 0.73 equiv. Further, the IC50 amounted to 4.83 µM in [2], 73.2 µM in experiment [3], 2.2 µM in experiment [4] and 50.6 µM in [5]. Further, in [6], the inhibition came out at 51.1%. For the same molecule, the Ratio IC50 in experiment [7] turned out to be 2.2.

Regarding `COc1cc(/C=C/C(=O)N2CCC(Cc3ccccc3)CC2)ccc1OCCCN1CCN(c2ncccn2)CC1`, the Activity in [1] turned out to be 0.41 equiv. The half-maximal inhibitory concentration (IC50) in experiment [2] was determined as 12.6 µM; in experiment [3] it was 93.5 µM; in experiment [4], 5.12 µM; in experiment [5] it was 45.4 µM. The same molecule had an inhibition in experiment [6] of 46.9%. The Ratio IC50 in experiment [7] worked out at 2.5.

Regarding `COc1cc(/C=C/C(=O)N2CCC(Cc3ccccc3)CC2)ccc1OCCCCCCN1CCN(c2ccccn2)CC1`, in experiment [1], the Activity is 0.38 equiv. For the same molecule, the figures for the IC50 in [2], in experiment [4] and in experiment [5] were 15.6 µM, 0.95 µM and 6.9 µM, respectively. This molecule also gave an inhibition at 25 µM in experiment [8] of 18.5%. Also, the inhibition in experiment [6] was 49.9%. Also, the Ratio IC50 in experiment [7] came to 16.4.

As to `COc1cc(/C=C/C(=O)N2CCC(Cc3ccccc3)CC2)ccc1OCCCCCN1CCN(c2ncccn2)CC1`, the Activity in experiment [1] worked out at 0.46 equiv. For the same molecule, the IC50 worked out at 5.81 µM in [2], 30.6 µM in experiment [3], 2.34 µM in [4] and 45.3 µM in [5]. Also, in [6], the inhibition is 39.7%. Moreover, in [7], the Ratio IC50 turned out to be 2.5.

The molecule `COc1cc(/C=C/C(=O)O)ccc1O` [FERULATE] had an inhibition at 25 µM in experiment [9] of less than 5%. Moreover, the Activity in experiment [1] came out at 1.1 equiv.

In turn, `COc1cc(/C=C/C(=O)N2CCC(Cc3ccccc3)CC2)ccc1O` had an inhibition at 25 µM in experiment [9] of less than 5%. In addition, the Activity in [1] came to 1.2 equiv. The molecule also returned a concentration for half-maximal inhibition (IC50) in [4] of 5.7 µM. The molecule also displayed an inhibition in experiment [6] of 65.9%.

`COc1cc(/C=C/C(=O)N2CCC(Cc3ccccc3)CC2)ccc1OCCCCCCN1CCc2ccccc2C1`: in [1], the Activity came out at 0.49 equiv. The IC50 in experiment [2] is 9.32 µM; in experiment [3], 21.5 µM; in experiment [4] it was 0.88 µM; in [5], 3.47 µM. The inhibition in experiment [6] was 54.7%. Moreover, in experiment [7], the Ratio IC50 came to 10.6.

Consider `COc1cc(/C=C/C(=O)N2CCC(Cc3ccccc3)CC2)ccc1OCCCN1CCN(Cc2ccccc2)CC1`, for which the Activity in [1] turned out to be 0.7 equiv. Besides, the IC50 in [2] turned out to be 8.4 µM; in experiment [3], 65 µM; in [4], 1.22 µM; in experiment [5], 41.2 µM. For the same molecule, the inhibition in [6] came out at 50.3%. In experiment [7], the Ratio IC50 amounted to 6.9.

As for `COc1cc(/C=C/C(=O)N2CCC(Cc3ccccc3)CC2)ccc1OCCCCCN1CCN(Cc2ccccc2)CC1`, the Activity in experiment [1] stood at 0.66 equiv. The IC50 turned out to be 2.62 µM in experiment [2], 79.8 µM in [3], 2.23 µM in experiment [4] and 61.5 µM in experiment [5]. Besides, the inhibition in [6] was 55.9%. The Ratio IC50 in experiment [7] amounted to 1.2.

As to `COc1cc(/C=C/C(=O)N2CCC(Cc3ccccc3)CC2)ccc1OCCCCCN1CCc2ccccc2C1`, in experiment [1], the Activity was 0.47 equiv. Also, the IC50 in experiment [2] stood at 4.33 µM; in experiment [3] it was 3.21 µM; in [4], 0.31 µM; in experiment [5], 11.4 µM. In experiment [6], this molecule had an inhibition of 50.7%. The Ratio IC50 in experiment [7] is 14.

For the molecule `COc1cc(/C=C/C(=O)N2CCC(Cc3ccccc3)CC2)ccc1OCCCCCCN1CCN(c2ncccn2)CC1`, the Activity in [1] is 0.51 equiv. In addition, the IC50 is 13.4 µM in [2], 0.68 µM in [4] and 68.6 µM in experiment [5]. In addition, the inhibition at 25 µM in experiment [8] worked out at 15.2%. This molecule also registered an inhibition in [6] of 42%. The Ratio IC50 in experiment [7] came out at 19.7.

With `COc1cc(/C=C/C(=O)N2CCC(Cc3ccccc3)CC2)ccc1OCCCN1CCN(c2ccccn2)CC1`, the Activity in experiment [1] turned out to be 0.47 equiv. Also, the IC50 in experiment [2] was 10.4 µM; in [3] it was 75.3 µM; in experiment [4], 0.86 µM; in experiment [5] it was 62.1 µM. For the same molecule, the inhibition in experiment [6] came out at 36.3%. In addition, the Ratio IC50 in [7] was 12.1.

`COc1cc2c(cc1OC)C(=O)C(CC1CCN(Cc3ccccc3)CC1)C2` (configuration not stated) [DONEPEZIL]: the half-inhibitory concentration (IC50) in experiment [5] turned out to be 4.42 µM.

Turning to `COc1cc(/C=C/C(=O)N2CCC(Cc3ccccc3)CC2)ccc1OCCCCN1CCN(c2ccccn2)CC1`, the Activity in experiment [1] amounted to 0.4 equiv. Moreover, the IC50 in experiment [2] was determined as 11.2 µM; in experiment [3], 67.2 µM; in [4] it was 1.62 µM; in [5], 48.6 µM. This molecule displayed an inhibition in experiment [6] of 49.8%. Also, the Ratio IC50 in [7] turned out to be 6.9.

Consider `COc1cc(/C=C/C(=O)N2CCC(Cc3ccccc3)CC2)ccc1OCCCCN1CCN(Cc2ccccc2)CC1`, for which, in experiment [1], the Activity was 0.67 equiv. For the same molecule, the IC50 in experiment [2] was 2.53 µM; in experiment [3], 56 µM; in [4] it was 0.39 µM; in experiment [5], 41.3 µM. The molecule also came in with an inhibition in experiment [6] of 54.6%. Further, the Ratio IC50 in experiment [7] was 6.5.

As to `COc1cc(/C=C/C(=O)N2CCC(Cc3ccccc3)CC2)ccc1OCCCCCN1CCN(c2ccccn2)CC1`, in [1], the Activity turned out to be 0.45 equiv. The IC50 was 9.12 µM in experiment [2], 58.5 µM in [3], 1.52 µM in experiment [4] and 57.3 µM in experiment [5]. The same molecule came in with an inhibition in experiment [6] of 51.5%. For the same molecule, the Ratio IC50 in experiment [7] was 6.
